From the NIST ThermoML archive (doi:10.1016/j.jct.2017.05.001)
± gives the expanded uncertainty stated by the source.

Experiment: wn = mass fraction of the nth substance listed
Conditions: Liquid; for mass density: Vibrating tube method

CN(C)CCO [2-(N,N-dimethylamino)ethanol] + O
viscosity [mPa·s]
Conditions | 293.15 K | 313.15 K
100 kPa, Concentric cylinders viscometry, w1 = 0.1 | 1.587 ± 0.033 | 0.947 ± 0.02
100 kPa, Concentric cylinders viscometry, w1 = 0.2 | 2.614 ± 0.054 | 1.408 ± 0.029
100 kPa, Concentric cylinders viscometry, w1 = 0.3 | 4.334 ± 0.088 | 2.102 ± 0.043
100 kPa, Concentric cylinders viscometry, w1 = 0.4 | 6.754 ± 0.14 | 3.068 ± 0.063
100 kPa, Falling or rolling sphere viscometry, w1 = 0.1005 | 1.559 ± 0.051 | 0.9401 ± 0.031
100 kPa, Falling or rolling sphere viscometry, w1 = 0.202 | 2.533 ± 0.083 | 1.368 ± 0.045
100 kPa, Falling or rolling sphere viscometry, w1 = 0.3005 | 4.211 ± 0.14 | 2.042 ± 0.067
100 kPa, Falling or rolling sphere viscometry, w1 = 0.3995 | 6.587 ± 0.22 | 2.99 ± 0.098
5000 kPa, Falling or rolling sphere viscometry, w1 = 0.1005 | 1.564 ± 0.051 | 0.9415 ± 0.031
5000 kPa, Falling or rolling sphere viscometry, w1 = 0.202 | 2.547 ± 0.084 | 1.374 ± 0.045
5000 kPa, Falling or rolling sphere viscometry, w1 = 0.3005 | 4.223 ± 0.14 | 2.063 ± 0.068
5000 kPa, Falling or rolling sphere viscometry, w1 = 0.3995 | 6.535 ± 0.21 | 3.031 ± 0.1
10000 kPa, Falling or rolling sphere viscometry, w1 = 0.1005 | 1.564 ± 0.051 | 0.9437 ± 0.031
10000 kPa, Falling or rolling sphere viscometry, w1 = 0.202 | 2.557 ± 0.084 | 1.382 ± 0.045
10000 kPa, Falling or rolling sphere viscometry, w1 = 0.3005 | 4.258 ± 0.14 | 2.083 ± 0.068
10000 kPa, Falling or rolling sphere viscometry, w1 = 0.3995 | 6.564 ± 0.22 | 3.075 ± 0.1
15000 kPa, Falling or rolling sphere viscometry, w1 = 0.1005 | 1.563 ± 0.051 | 0.9453 ± 0.031
15000 kPa, Falling or rolling sphere viscometry, w1 = 0.202 | 2.566 ± 0.084 | 1.392 ± 0.046
15000 kPa, Falling or rolling sphere viscometry, w1 = 0.3005 | 4.295 ± 0.14 | 2.103 ± 0.069
15000 kPa, Falling or rolling sphere viscometry, w1 = 0.3995 | 6.801 ± 0.22 | 3.121 ± 0.1
20000 kPa, Falling or rolling sphere viscometry, w1 = 0.1005 | 1.562 ± 0.051 | 0.9476 ± 0.031
20000 kPa, Falling or rolling sphere viscometry, w1 = 0.202 | 2.574 ± 0.084 | 1.395 ± 0.046
20000 kPa, Falling or rolling sphere viscometry, w1 = 0.3005 | 4.33 ± 0.14 | 2.121 ± 0.07
20000 kPa, Falling or rolling sphere viscometry, w1 = 0.3995 | 6.863 ± 0.23 | 3.164 ± 0.1
25000 kPa, Falling or rolling sphere viscometry, w1 = 0.1005 | 1.561 ± 0.051 | 0.9506 ± 0.031
25000 kPa, Falling or rolling sphere viscometry, w1 = 0.202 | 2.583 ± 0.085 | 1.4 ± 0.046
25000 kPa, Falling or rolling sphere viscometry, w1 = 0.3005 | 4.374 ± 0.14 | 2.142 ± 0.07
25000 kPa, Falling or rolling sphere viscometry, w1 = 0.3995 | 6.822 ± 0.22 | 3.209 ± 0.11
30000 kPa, Falling or rolling sphere viscometry, w1 = 0.1005 | 1.564 ± 0.051 | 0.9525 ± 0.031
30000 kPa, Falling or rolling sphere viscometry, w1 = 0.202 | 2.589 ± 0.085 | –
30000 kPa, Falling or rolling sphere viscometry, w1 = 0.3005 | 4.405 ± 0.14 | –
30000 kPa, Falling or rolling sphere viscometry, w1 = 0.3995 | 7.027 ± 0.23 | –
40000 kPa, Falling or rolling sphere viscometry, w1 = 0.1005 | 1.564 ± 0.051 | –
40000 kPa, Falling or rolling sphere viscometry, w1 = 0.202 | 2.605 ± 0.086 | –
40000 kPa, Falling or rolling sphere viscometry, w1 = 0.3005 | 4.464 ± 0.15 | –
40000 kPa, Falling or rolling sphere viscometry, w1 = 0.3995 | 6.883 ± 0.23 | –
60000 kPa, Falling or rolling sphere viscometry, w1 = 0.1005 | 1.562 ± 0.051 | –
60000 kPa, Falling or rolling sphere viscometry, w1 = 0.202 | 2.637 ± 0.087 | –
60000 kPa, Falling or rolling sphere viscometry, w1 = 0.3005 | 4.588 ± 0.15 | –
60000 kPa, Falling or rolling sphere viscometry, w1 = 0.3995 | 7.591 ± 0.25 | –
80000 kPa, Falling or rolling sphere viscometry, w1 = 0.1005 | 1.57 ± 0.052 | –
80000 kPa, Falling or rolling sphere viscometry, w1 = 0.202 | 2.672 ± 0.088 | –
80000 kPa, Falling or rolling sphere viscometry, w1 = 0.3005 | 4.73 ± 0.16 | –
100000 kPa, Falling or rolling sphere viscometry, w1 = 0.1005 | 1.577 ± 0.052 | –
100000 kPa, Falling or rolling sphere viscometry, w1 = 0.202 | 2.706 ± 0.089 | –
100000 kPa, Falling or rolling sphere viscometry, w1 = 0.3005 | 4.861 ± 0.16 | –

mass density [kg/m3]
Conditions | w1 = 0.1005 | w1 = 0.202 | w1 = 0.3005 | w1 = 0.3995
293.15 K, 100 kPa | 994.5 ± 0.7 | 992.6 ± 0.7 | 990.6 ± 0.7 | 986.6 ± 0.7
293.15 K, 500 kPa | 994.7 ± 0.7 | 992.7 ± 0.7 | 990.7 ± 0.7 | 986.7 ± 0.7
293.15 K, 1000 kPa | 994.8 ± 0.7 | 992.9 ± 0.7 | 990.9 ± 0.7 | 986.9 ± 0.7
293.15 K, 2000 kPa | 995.3 ± 0.7 | 993.3 ± 0.7 | 991.3 ± 0.7 | 987.3 ± 0.7
293.15 K, 5000 kPa | 996.5 ± 0.7 | 994.4 ± 0.7 | 992.4 ± 0.7 | 988.4 ± 0.7
293.15 K, 10000 kPa | 998.5 ± 0.7 | 996.3 ± 0.7 | 994.2 ± 0.7 | 990.3 ± 0.7
293.15 K, 15000 kPa | 1000.5 ± 0.7 | 998.2 ± 0.7 | 996 ± 0.7 | 992.1 ± 0.7
293.15 K, 20000 kPa | 1002.6 ± 0.7 | 1000 ± 0.7 | 997.8 ± 0.7 | 994 ± 0.7
293.15 K, 30000 kPa | 1006.6 ± 0.7 | 1003.7 ± 0.7 | 1001.4 ± 0.7 | 997.5 ± 0.7
293.15 K, 40000 kPa | 1010.5 ± 0.7 | 1007.4 ± 0.7 | 1004.9 ± 0.7 | 1001 ± 0.7
293.15 K, 50000 kPa | 1014.3 ± 0.7 | 1010.8 ± 0.7 | 1008.2 ± 0.7 | 1004.4 ± 0.7
293.15 K, 60000 kPa | 1018.1 ± 0.7 | 1014.3 ± 0.7 | 1011.6 ± 0.7 | 1007.7 ± 0.7
293.15 K, 70000 kPa | 1021.8 ± 0.7 | 1017.9 ± 0.7 | 1014.9 ± 0.7 | 1011 ± 0.7
293.15 K, 80000 kPa | 1025.3 ± 0.7 | 1021.1 ± 0.7 | 1018 ± 0.7 | 1014.1 ± 0.7
293.15 K, 90000 kPa | 1029 ± 0.7 | 1024.4 ± 0.7 | 1021.2 ± 0.7 | 1017.3 ± 0.7
293.15 K, 100000 kPa | 1032.5 ± 0.7 | 1027.7 ± 0.7 | 1024.3 ± 0.7 | 1020.4 ± 0.7
293.15 K, 110000 kPa | 1035.9 ± 0.7 | 1030.8 ± 0.7 | 1027.2 ± 0.7 | 1023.2 ± 0.7
293.15 K, 120000 kPa | 1039.3 ± 0.7 | 1033.9 ± 0.7 | 1030.2 ± 0.7 | 1026.3 ± 0.7
293.15 K, 130000 kPa | 1042.7 ± 0.7 | 1037.2 ± 0.7 | 1033.3 ± 0.7 | 1029.2 ± 0.7
293.15 K, 140000 kPa | 1045.7 ± 0.8 | 1040.1 ± 0.7 | 1036 ± 0.7 | 1031.9 ± 0.7
313.15 K, 100 kPa | 987.4 ± 0.7 | 983.2 ± 0.7 | 978.8 ± 0.7 | 972.7 ± 0.7
313.15 K, 500 kPa | 987.6 ± 0.7 | 983.4 ± 0.7 | 979 ± 0.7 | 972.9 ± 0.7
313.15 K, 1000 kPa | 987.8 ± 0.7 | 983.6 ± 0.7 | 979.2 ± 0.7 | 973.1 ± 0.7
313.15 K, 2000 kPa | 988.3 ± 0.7 | 984 ± 0.7 | 979.6 ± 0.7 | 973.5 ± 0.7
313.15 K, 5000 kPa | 989.5 ± 0.7 | 985.2 ± 0.7 | 980.8 ± 0.7 | 974.7 ± 0.7
313.15 K, 10000 kPa | 991.5 ± 0.7 | 987.2 ± 0.7 | 982.7 ± 0.7 | 976.7 ± 0.7
313.15 K, 15000 kPa | 993.4 ± 0.7 | 989.1 ± 0.7 | 984.6 ± 0.7 | 978.6 ± 0.7
313.15 K, 20000 kPa | 995.4 ± 0.7 | 990.9 ± 0.7 | 986.5 ± 0.7 | 980.6 ± 0.7
